In US20150212087A1, “Detection of the ERalpha/Src/PI3K Complex as Predictive Marker in Breast Cancer” (Centre Leon Berard, priority 2012, published 2015):

Legend:
ERα/PI3K interaction = assay: In situ Proximity Ligation Assay (PLA) detection of ERα/PI3K interaction in MCF-7 cells; type: cell-based, human; conditions: upon treatment
Text: (§1) Castoria et al. reported that estrogen rapidly triggers the interaction of ERα with Src and PI3K in MCF-7 cells, forming a complex involved in estrogen nongenomic-induced cell proliferation. […] Therefore the physiological relevance of this signaling pathway remains questionable. To date, immuno fluorescence analysis of the complex has been impeded by the fact that only a small population of ERα interacts with Src and PI3K. To circumvent this problem, we used a newly developed technique, the Proximity Ligation Assay. […] We investigated the ERα/PI3K interaction in the human breast tumor cell line MCF-7, using a rabbit anti-ERα together with a mouse anti-p85 antibody. The ERα/Src interaction was detected using the same anti-ERα together with a mouse anti-Src antibody. […] No dots were detected using only one antibody as confirmed by counting dots per 100 cells (FIG. 1, around 50 dots/cell versus less than 5). Importantly, the number of red dots increased after 5 min of estrogenic treatment then decreased after 15 min. This confirmed that upon estrogenic treatment, the formation of this complex is rapid and transitory (FIG. 2:)). […] They were detected exclusively in the […] of MCF-7 cells, as expected. […]

ERα/Src interaction = assay: In situ Proximity Ligation Assay (PLA) detection of ERα/Src interaction in MCF-7 cells; type: cell-based, human; conditions: upon treatment
Text: as §1

SMILES	ERα/PI3K interaction (red dots) by PLA (ERα/PI3K interaction)	ERα/Src interaction (red dots) by PLA (ERα/Src interaction)
Cc1ccc(-c2nn(C(C)(C)C)c3ncnc(N)c23)cc1 [PP1]	significant decrease of red dots	significant decrease of red dots
CC/C(=C(\c1ccccc1)c1ccc(OCCN(C)C)cc1)c1ccccc1 [tamoxifen]	decrease	decrease
